According to patent publication US20120029002A1, “BENZIMIDAZOLE AND PYRAZOLOPYRIDINE DERIVATIVES FOR TREATING AND/OR PREVENTING CARDIOVASCULAR DISEASES” (BAYER SCHERING PHARMA AKTIENGESELLSCHAFT, priority 2009, published 2012):

System: aorta rings
Test: Vasorelaxant effect in vitro (phenylephrine-contracted rabbit aorta rings)
Type: cell-based, Rabbits
Details: Oryctolagus cuniculus; concentration necessary to reduce the height of the phenylephrine-induced contraction of rabbit aorta rings by 50%; organ bath, 37° C., 0.1% DMSO
Method: B-1. Vasorelaxant effect in vitro
Rabbits are stunned by a blow to the neck and exsanguinated. The aorta is removed, freed from adhering tissue and divided into rings of a width of 1.5 mm The rings are placed individually under an initial tension in 5 ml organ baths with Krebs-Henseleit solution which is at 37° C., is gassed with carbogen and has the following composition (in each case mM): NaCl: 119; KCl: 4.8; CaCl2×2 H2O: 1; MgSO4×7 H2O: 1.4; KH2PO4: 1.2; NaHCO3: 25; glucose: 10. The force of contraction is detected with Statham UC2 cells, amplified and digitized via A/D converters (DAS-1802 HC, Keithley Instruments, Munich) and recorded in parallel on chart recorders. Contractions are induced by cumulatively adding increasing concentrations of phenylephrine to the bath. After several control cycles, the substance to be investigated is added in each further run in increasing dosage, and the height of the contraction achieved is compared with the height of the contraction reached in the last preceding one. The concentration necessary to reduce the height of the control value by 50% is calculated from this (IC50 value). The standard application volume is […] the proportion of DMSO in the bath solution corresponds to 0.1%.

IC50	Structure (SMILES)
1.43 µM	CC(C)OC(=O)Nc1c(N)nc(-n2nc(Sc3ccccc3F)c3ncccc32)nc1N [Example 9, Propan-2-yl (4,6-diamino-2-{3-[(2-fluorophenyl)sulphanyl]-1H-pyrazolo[4,3-b]pyridin-1-yl}pyrimidin-5-yl)carbamate]
2.15 µM	Nc1nc(-n2nc(Sc3ccccc3F)c3ccccc32)nc(N)c1N [Example 3, 2-{3-[(2-Fluorophenyl)sulphanyl]-1H-indazol-1-yl}pyrimidine-4,5,6-triamine]
5.64 µM	CC(C)OC(=O)Nc1c(N)nc(-n2nc(Oc3ccccc3F)c3ccccc32)nc1N [Example 19, Propan-2-yl{4,6-diamino-2-[3-(2-fluorophenoxy)-1H-indazol-1-yl]pyrimidin-5-yl}carbamate]
4.93 µM	CC(C)OC(=O)Nc1c(N)nc(-n2nc(Sc3ccccc3F)c3ccccc32)nc1N [Example 12, Propan-2-yl (4,6-diamino-2-[3-[(2-fluorophenyl)sulphanyl]-1H-indazol-1-yl]pyrimidin-5-yl)-carbamate]
